Experimental findings from patent US20210299094A1, “METHODS OF UPREGULATING TIPARP AS ANTICANCER STRATEGIES” (CORNELL UNIVERSITY, priority 2018, published 2021) are described below.

Structures are written as SMILES. Like-named read-outs stand apart in the source and are kept apart here. Where a SMILES comes first, the peptide text is derived from it. The star is where a group is joined. Cbz = O=C(OCc1ccccc1)*

In data set [1] the test system is HCT116. Nature of the data set: Growth inhibition IC50 in HCT116 cells, control vs TiPARP knockdown. Format: cell-based. The settings on record: Homo sapiens. Here is the method:
(§1) For transient overexpression of proteins of interest, cells were transfected with expression vectors using FuGene 6 (Promega, E2691) according to the manufacturer's protocol. To stably knock down TiPARP, lentivirus was produced by transfecting HEK 293T cells with pCMV-ΔR8.2 (packaging vector), pM2D.G (envelope vector) and shRNAs (Sigma). Virus-containing medium was harvested 24 hr after transfection. Target ceils were seeded in a 6-well plate 20 hr prior to transduction (3×10^5 cells per well). At the confluence of 50%, target cells were transduced with virus particles in medium supplemented with 5 μg/ml polybrene (Sigma), and incubated for 6 hr. Remove supernatant and add fresh medium to the cells. 72 hr after infection, 2 μg/mL puromycin was added to the cell culture media for 10 days to select stably transduced target cells.
(§2) IC50 values for Biochanin A was measured in HCT116, SKBR3 and MCF-7 cell lines where TiPARP was knocked down.

For data set [2], the system named is TiPARP mRNA. As to the method: (§3) Quantitative Real Time PCR (qRT-PCR)
(§4) Total RNA. was isolated using RNeasy Mini kit (Qiagen) according to the manufacturer's instructions. 0.2 μg sample of total RNA was employed for cDNA synthesis using the Superscript III First-Strand Synthesis kit (Invitrogen) following the manufacturer's instructions. For quantitative real-time PCR analysis, iTaq Universal SYBR Green Supermix (Bio-Rad) was used following the manufacturer's instructions. The reaction was performed with QuantStudio™ 7 Flex Real-Time PCR System (APPLIED BIOSYSTEMS™). In each run, melt curve analysis was performed to ensure the amplification of a single product. The relative expression of each gene, normalized to actin, was calculated using the 2^−ΔΔCt method. The following primers were used for qRT-PCR: VEGF: 5′-[…]-3′ (SEQ ID NO: 24) and 5′-[…]-3′ (SEQ ID NO: 25); GLUT1: 5′-[…] CTAAA-3′ (SEQ ID NO: 26) and 5′˜[…]-3′ (SEQ ID NO: 27); PDK1: 5′-[…]-3′ (SEQ ID NO: 28) and 5′-[…]-3′ (SEQ ID NO: 29); WSBJ: 5′-[…]-3′ (SEQ ID NO: 30) and 5′-[…]-3′ (SEQ ID NO: 31); LDHA: 5′-[…]-3′ (SEQ ID NO: 32) and 5′-[…] CAG-3′ (SEQ ID NO: 33); CXCR4: 5′-[…]-3′ (SEQ ID NO: 34) and 5′-[…]-3′ (SEQ ID NO: 35); TIPARP: 5′-[…]-3′ (SEQ ID NO: 36) and 5′-[…]-3′ (SEQ ID NO: 37), ACTIN: 5′-[…]-3′ (SEQ ID NO: 38) and 5′-[…]-3′ (SEQ ID NO: 39).

Data set [3] deals with SKBR3. Nature of the data set: Growth inhibition IC50 in SKBR3 cells, control vs TiPARP knockdown. Particulars: Homo sapiens. The class given is cell-based. As to the method:
as §1, §2

The subject of data set [4] is HCT116. The data set is described as follows: IC50 in HCT116 cell line. The class given is cell-based. Particulars: Homo sapiens, HCT-116.
Data set [5] concerns MCF-7 (ER pos.). Nature of the data set: IC50 in MCF-7 (ER pos.) cell line. The class given is cell-based. The settings on record: Homo sapiens, MCF7.
The test system of data set [6] is SKBR3 (ER neg.). Nature of the data set: IC50 in SKBR3 (ER neg.) cell line. Format: cell-based. The settings on record: Homo sapiens, SK-BR-3.
Data set [7] concerns MCF-7. The data set is described as follows: Growth inhibition IC50 in MCF-7 cells, control vs TiPARP knockdown. The class given is cell-based. Particulars: Homo sapiens. As to the method:
as §1, §2

For data set [8], the system named is TiPARP mRNA. As to the method:
as §3, §4
The source holds these as a separate data set.

Data set [9] deals with TiPARP mRNA. Here is the method: as §3, §4
The source holds these as a separate data set.

The subject of data set [10] is TiPARP mRNA. Nature of the data set: RT-PCR analysis of TiPARP mRNA level in HEK 293T treated with hypoxia-mimetic agents. Format: cell-based, human. The settings on record: FIG. 1C. An excerpt:
FIGS. 1A-1F. TiPARP is a direct target gene of HIFs. (A) A schematic representation of TiPARP promoter. Core sequence of hypoxia-response element (HRE) is highlighted in red. (B) Expression of TiPARP mRNA in HCT116 and MCF-7 cells analyzed by qRT-PCR under normoxia/hypoxia (mean and s.d. of three independent experiments). (C) RT-PCR analysis of TiPARP mRNA level in HEK 293T treated with hypoxia-mimetic agent DMOG and DFO, or transfected with HA tagged HIF-1α. Expression of endogenous or HA-HIF-1α was detected by HIF-1α antibody on western blot (bottom), (D) Schematic representation of the luciferase reporter construct with wild type (WT) or mutated (Mut) HRE. (E) HIF-1α transactivation measured by luciferase reporter with WT or mutant HRE from TiPARP promoter. Transfection efficiencies were normalized to co-transfected Renilla-luciferase. Mean and standard deviation (s.d.) correspond to four technical replicates, representative of three independent experiments. NS, not significant. (F) ChIP assay assessing the chromatin binding of HIF-1α to HRE in TiPARP promoter, RNA polymerase II (Pol II) was used as a positive control.
TiPARP was previously characterized as a TCDD-responsive gene regulated by AHR (Ma, Q. Arch Biochem Biophys 404, 309-316 (2002); Ma, Q. et al, Biochem Biophys Res Commun 289, 499-506, (2001)). […]

Data set [11] has as its system MDA-MB-231 (ER negative). The data set is described as follows: IC50 in MDA-MB-231 (ER negative) cell line. The settings on record: Homo sapiens. The class given is cell-based.
Data set [12] has as its system TiPARP mRNA. Particulars: human. Here is the method: as §3, §4
The subject of data set [13] is BT549 (ER negative). The data set is described as follows: IC50 in BT549 (ER negative) cell line. Particulars: Homo sapiens, BT-549. Format: cell-based.
The subject of data set [14] is HME1 (normal mammary epithelial cell). Nature of the data set: IC50 in HME1 (normal mammary epithelial cell). Format: cell-based.
The test system of data set [15] is MDA-MB-468 (ER negative). Nature of the data set: IC50 in MDA-MB-468 (ER negative) cell line. Format: cell-based. Particulars: Homo sapiens.
Data set [16] has as its system cMyc protein levels. The data set is described as follows: cMyc protein levels in TiPARP-overexpressing HCT 116C cells with protease inhibitor treatment. Format: cell-based, human. The settings on record: 20 μM, over 2 hours, FIG. 10B. From the text: FIGS. 10A-10E. (A) Overexpression of active TiPARP decreases cMyc protein levels. […] (B) TiPARP regulates cMyc protein levels by regulating the protein degradation pathway. […] (D) Knockdown of TiPARP in HCT116 cells caused ERα protein levels to increase. (E) Knockdown of TiPARP in MCF-7 cells caused ERα protein levels to increase.
The inventors also observed that overexpression of active TiPARP decreases cMyc protein levels.
The inventors also discovered the TiPARP regulates cMyc protein levels by regulating the protein degradation pathway.

The IC50 is the concentration at which inhibition is half-maximal. The low end stands for greater potency, the high end for weaker potency. For the molecule `COc1ccc(-c2coc3cc(O)cc(O)c3c2=O)cc1` [Biochanin A], the IC50 in [1] (HCT-116, HCT116, Ctrl) was 30 µM; in data set [1] (HCT-116, HCT116, TiPARP KD (40%)) it was 54.8 µM; in [3] (SK-BR-3, SKBR3, Ctrl) it was 52.3 µM; in data set [3] (SK-BR-3, SKBR3, TiPARP KD (40%)), 83.3 µM; in data set [4] it was 20 µM; in data set [5], 19.7 µM. Also, the half-inhibitory concentration (IC50) was found to be 20 µM in data set [6]; 93.4 µM in data set [7] (MCF7, MCF-7, Ctrl); 174 µM in data set [7] (MCF7, MCF-7, TiPARP KD (40%)). Also, the “TiPARP mRNA fold induction” value in [2] (human) is given as 8.8 fold; in [8] (human), 5.6 fold; in data set [9] (human) it was 2.5 fold.

For `CC(=O)N(O)CCCCCNC(=O)CCC(=O)N(O)CCCCCNC(=O)CCC(=O)N(O)CCCCCN` [DFO, desferrioxamine], in [10], the “TiPARP mRNA level” value is “increased”.

As for `COC(=O)CNC(=O)C(=O)OC` [DMOG, dimethyloxalylglycine], the “TiPARP mRNA level” value in [10] is on record as “increased”.

In the case of `c1ccc2c(Cc3c[nH]c4ccccc34)c[nH]c2c1` [Diindolylmethane, diindolylmethane], the concentration for half-maximal inhibition (IC50) was found to be 47.9 µM in [11]; 39 µM in [4]; 31 µM in data set [5]; 32.1 µM in [13]; 45 µM in [6]; 51.2 µM in data set [14]. Also, in data set [15], the half-maximal inhibitory concentration (IC50) is 13.5 µM. Besides, the “TiPARP mRNA fold induction” value was determined as 4.2 fold in data set [2] (human), 3.2 fold in [12], 3.3 fold in data set [8] (human) and 8.0 fold in [9] (human).

As for `COc1ccc(-c2coc3cc(O)ccc3c2=O)cc1` [Formonometin, formonometin], the results for the “TiPARP mRNA fold induction” value in data set [2], in data set [8] and in data set [9] were 2.5 fold, 1.7 fold and 2.3 fold, respectively.

For `CC(C)C[C@@H](C=O)NC(=O)[C@H](CC(C)C)NC(=O)[C@H](CC(C)C)NC(=O)OCc1ccccc1` [MG132] (Cbz-Leu-Leu-Leu-aldehyde), the “effect on TiPARP-overexpression-induced decrease of cMyc protein levels” value in data set [16] was “effectively blocked the effect of TiPARP overexpression”.

As for `COc1ccc2[nH]c([S+]([O-])Cc3ncc(C)c(OC)c3C)nc2c1` (stereo not drawn) [Omerprazole, omeprazole], the “TiPARP mRNA fold induction” value is on record as 2.3 fold in data set [2] (human), 0.81 fold in [8] (human) and 1.7 fold in data set [9] (human).

On to `Oc1ccc(C=Cc2cc(O)cc(O)c2)cc1` [Resveratrol, resveratrol], for which the IC50 in data set [11] is 90.4 µM; in data set [4], 46 µM; in [5] it was 27.7 µM; in [13], 23.1 µM; in data set [6], 35.3 µM; in [14], 189 µM. Half-maximal inhibition in data set [15] (IC50) required 97.3 µM.

Regarding `OCc1c[nH]c2ccccc12` [indole-3-carbinol], the “TiPARP mRNA fold induction” value came out at 1.4 fold in data set [2], 1.5 fold in data set [8] and 1.4 fold in data set [9].
